Source: the OligoGym collection
These antisense oligonucleotides have a phosphorothioate backbone; sugars and methylation of C are not fully specified.

molecular target: WWP1; details: ASO
Also: test concentration or dose not given here.

Sequence	remaining target (mRNA or protein) (fraction of control)
AAATAACGGAAGTGAGCAAG	0.88
AAATAGTGCCATGGCAATAA	0.98
AACAGTAGTACTAGTGCAAT	≥ 1
AACATTGAAGCCGAATAGAG	≥ 1
AACTTCAGGTCATGTGAAGT	≥ 1
AAGGTTGTGGTCTCTCCCAT	≥ 1
AATTTCCCAGCCTTCTGGCA	≥ 1
ACTAGAGTGCTTGTAGGTAC	≥ 1
AGAATGGTAAAGAGAAACCA	≥ 1
AGTATCAATAGATTCCAAAT	≥ 1
ATACATTGGGTTCAAAACTT	0.92
ATCATCAACTCTTCTTTCCC	0.7
ATCTGCAGACAATAGTTGTT	≥ 1
ATCTTTGTTCTCCTCAGTCA	0.92
ATGTCAACAGAAAAGTACAT	≥ 1
ATTCCAATTCTGCACTGGTA	≥ 1
ATTGATCTTTACATGACTAG	0.83
CACCATAATCAAGTCCTTCT	0.52
CATAAGCAATTTGTGGACCA	≥ 1
CCTGGTGGCAAAGGTCCATA	≥ 1

Sequence	remaining target (mRNA or protein) (fraction of control)
CTGTTGGAAGGAATCTTCAA	≥ 1
CTTTGTTCCCACCCTGATGG	0.98
GAATTAGAGGTGTCAGGCTC	≥ 1
GAGACGGAGATGAAGGTGTG	≥ 1
GATCCACATAATAGGTTCTA	≥ 1
GCAGGCTCAGATGCGAGTGG	≥ 1
GCATAGCTCCCTGCAATTGG	≥ 1
GTTGGTGCAAATGAGGATGA	0.95
GTTGTTGTTCTGGTGTTATG	0.95
TAAGCGCCTCCTCAAGTCAT	0.86
TATGAAAGATGGTCTGGATT	0.99
TATGATCAACAAAGTACCTT	≥ 1
TCAGACACTACTGGAGTACC	0.76
TCCCAGACTGCTGCCGTACA	0.47
TCCCATTGCGAGGATCTTTG	≥ 1
TGTCTTGATTTGGCTGCTTC	0.91
TGTTGTTATCTCTTATCCAG	0.92
TTCAAAATTTCGGACAGATT	≥ 1
TTTCTGAGGAAGTCAGTATT	≥ 1
TTTGTGTTATGATTCACAAA	0.95

molecular target: NCOA1; details: ASO

Sequence	remaining target (mRNA or protein) (fraction of control)
AAAAGTGGTTATTCAGTC	0.62
AAAGTGGTTATTCAGTCA	0.71
AAGTGGTTATTCAGTCAG	0.74
ACCTCCTGAAGAGTTAGC	0.58
AGCTGTCAATGTCACTAA	0.43
AGTGGTTATTCAGTCAGT	0.67
ATGATGATGAAGCCGAAT	0.93
ATGCCAACAGGAGCAGTT	0.51
CATGATGATGAAGCCGAA	0.7
CCTTGACTACTTGATGAG	0.77
CCTTTAAAAGTGGTTATT	≥ 1
CGAATTCCACCACACTGG	0.69
CTACGACCTGAAGAATGG	0.76
CTCTTGTTCCATTCTCTT	0.61
CTGAAAGTCTGTCATTGT	0.95
CTGAGGACTGGAGAACTG	0.44

molecular target: PRKACA; details: ASO

Sequence	remaining target (mRNA or protein) (fraction of control)
AAACCACTTGTGGTTCTTGA	0.66
AAGCAACCCACTGAACATGT	0.62
ACCCTCGCAGGATTGGCAGA	0.47
AGCACAAATGAGAAAGTGGG	0.93
ATTCTTTCACGCTCTCCTGC	0.97
CAAACTGATCCAAGTGGGCT	0.27
CACACAGGTTGAATCGCCCC	0.39
CAGGCAGCCCCTCCCCAGCA	0.51
CATCGCGGCGGCGGCGGCCG	0.51
CCAGCATCACCCGCCCGAAG	0.34
CCCATCGCGGCGGCGGCGGC	0.53
CCTTGAACCCCGGGCCGTGG	0.44
